Test results as given in patent publication US12714698B2, “Compositions and methods for treating or preventing dermal disorders” (Drexel University, priority 2015, dated 2026).
Read-outs that look alike come from different tables or passages of the source.

Experiments:
[1] = test system: ribosomal S6 protein and MDM2; assay: Immunoblot of ribosomal S6 protein and MDM2 phosphorylation (mTORC1/p70S6K signaling); format: cell-based, human
[2] = test system: ribosomal S6 protein and MDM2; assay: as above; format: cell-based, human; remark: listed apart in the source
Procedure: (§1) Cell culture experiments utilizing NRTIs were of the following design. Cultures of either human lung or cardiac fibroblasts were cultivated according to standard culture protocols for these cells (Cristofalo, et al., Journal of Tissue Culture Methods 1980, 6:117-121). Parallel sets of cultures were maintained in normal growth media or in normal growth media with the addition of 1 nM rapamycin. Cultures were maintained with 1 nM rapamycin (Enzo Biologicals) for two weeks before exposure to NRTIs. Cell cultures were exposed to NRTIs at indicated concentrations in individual experiments (generally 10-20 μg/ml) for 7 days, with a change of media and fresh NRTIs at day 4. Mitochondrial measurements, bioanalyzer measurements, immunoblotting for protein expression and phosphorylation status, and assays for senescence were performed at the end of this 7-day period.
(§2) Cell culture reagents were from Cellgro, unless indicated. WI-38 fetal-lung primary human fibroblasts or human cardiac fibroblasts were grown in MEM supplemented with 10% fetal bovine serum, 1% L-glutamine, MEM vitamins, and MEM non-essential amino acids. Cells were maintained in a 37° C. in 5% CO2 incubator. For treatment studies, cells were treated with 1 nM rapamycin (Enzo Biologicals) for two weeks before treatment with NRTIs. Cells were maintained by trypsinization and reseeding at a cell density of 1×10^4/cm^2 every 7 to 10 days. Emtricitabine (FTC) and tenofovir disoproxil fumarate (TDF) were kindly provided by the NIH AIDS Research & Reference Reagent program. During the 7-day exposure to the NRTIs, the pharmacologic inhibitors PD98059 (10 μM, Santa Cruz Biotechnologies), BI-D1870, GW5074, and SB203580 (10 μM, Enzo Biologicals) were added to the culture medium either during the final 48 hours or for the final 2 hours depending upon the experiment. During the 7-day exposure to NRTIs, Trolox (500 μM) and N-acetylcysteine (100 μM, Acros Organics) were added every other day. Mito-Q (20 nM) and TPP (20 nM) were kindly provided by Dr. Brett Kaufmann at the University of Pennsylvania School of Veterinary Medicine. Vector and mt-catalase adenoviruses (MOI's 25, 50, and 75) were purchased from Gene Transfer Vector Core from the University of Iowa.
Cell protein extracts were prepared by extracting with radioimmunoprecipitation assay (RIPA) buffer containing a protease inhibitor cocktail (Sigma-Aldrich) and phosphatase inhibitors, NaF and sodium orthovanadate. Protein concentration was quantified using a bicinchoninic acid (BCA) assay (Pierce Biotechnology). Western blot analysis was performed using 15 to 30 μg of protein extracts that were run on SDS-PAGE and transferred onto nitrocellulose (Biorad) membranes. Blots were incubated with antibodies specific for: beta-actin (Sigma-Aldrich), TFAm, parkin, p16, phospho(S82)HSP27, HSP27 (Santa Cruz Biotechnologies), p53, 21, catalase, MDM2 (EMD Millipore), VDAC, phospho(S235/236)-ribosomal protein S6, ribosomal protein S6, phospho(S166)-MDM2, phospho(5473)-AKT, AKT, beta-tubulin (Cell Signaling), p62 (Enzo Biologicals), IL-6 (NeoBiolab), lamin B1, PINK1, and Mitoprofile Total OXPHOS Cocktail (complex I-NDUFB8 subunit, CII-SDHB subunit, […]2 subunit, and CIV-mitochondrial COX1 subunit) (Abcam) according to manufacturers' instructions. Western blots were visualized using IRDye 680 and 800 LI-COR secondary antibodies on a LI-COR Odyssey using LI-COR Odyssey software version 3.0 (LI-COR Biosciences). For co-immunoprecipitation, cell protein extracts were prepared in HNTG buffer containing a protease inhibitor cocktail and quantified using BCA assay. Protein extracts at the concentration of 0.5 mg were pre-cleared with protein A/G beads (Santa Cruz Biologicals) for 30 minutes. After centrifugation at 2,000 rpm for 5 minutes at 4° C., the supernatant was incubated with the primary antibody at manufacturer's recommended concentration overnight at 4° C. An IgG antibody (Cell Signaling) was used as a non-specific control.

[3] = test system: human cardiac fibroblasts; assay: Mitochondrial respiration, Seahorse XF24 Bioanalyzer; format: cell-based; settings: mito-Q during NRTI exposure
Procedure: Cell culture experiments utilizing NRTIs were of the following design. Cultures of either human lung or cardiac fibroblasts were cultivated according to standard culture protocols for these cells (Cristofalo, et al., Journal of Tissue Culture Methods 1980, 6:117-121). Parallel sets of cultures were maintained in normal growth media or in normal growth media with the addition of 1 nM rapamycin. Cultures were maintained with 1 nM rapamycin (Enzo Biologicals) for two weeks before exposure to NRTIs. […] Mitochondrial measurements, bioanalyzer measurements, immunoblotting for protein expression and phosphorylation status, and assays for senescence were performed at the end of this 7-day period. Mitochondrial function was measured using the XF cell mito stress test kit on a Seahorse XF24 Bioanalyzer (Seahorse Bioscience). Cells were seeded at a density of 15,000 cells per well in an XF24 microplate. Following acquisition, results were normalized based upon 10^6 cells counted using a Guava EasyCyte Mini (Millipore), where applicable. […] Respiration rates and proton leak were assessed as outlined in published methods (Hill, et al., Biological chemistry 2012, 393:1485-1512). Mitochondrial respiration was calculated based upon oxygen consumption rate measurements in triplicates from cells seeded in at least quadruplicates. Basal respiration represents the initial oxygen consumption rate measurements and maximal respiration represents the oxygen consumption rate measurements following FCCP addition. ATP-linked respiration is represented as the oligomycin-sensitive oxygen change to basal oxygen consumption rate. Proton leak represents the oligmycin insensitive oxygen consumption rate. […] All data was normalized to cell number by counting cells in each well at the completion of the mitochondrial assessments.

[4] = test system: human cardiac fibroblasts; assay: Immunoblot of senescence markers (p53, p21, p16, lamin B1, IL-6); format: cell-based; settings: ROS-reducing intervention during NRTI exposure, no rapamycin
Procedure: as §1, §2
Cell protein extracts were prepared by extracting with radioimmunoprecipitation assay (RIPA) buffer containing a protease inhibitor cocktail (Sigma-Aldrich) and phosphatase inhibitors, NaF and sodium orthovanadate. Protein concentration was quantified using a bicinchoninic acid (BCA) assay (Pierce Biotechnology). […] For co-immunoprecipitation, cell protein extracts were prepared in HNTG buffer containing a protease inhibitor cocktail and quantified using BCA assay. […]

[5] = test system: human cardiac fibroblasts; assay: Senescence-associated beta-galactosidase detection; format: cell-based; settings: ROS-reducing intervention during NRTI exposure, no rapamycin
Procedure: as §1
Assessment of SA-β-gal activity was performed by plating cells following respective treatments at low density (0.5×10^4/cm^2) to prevent false positive staining known to occur in high density cultures. […] Following incubation, cells were washed three times with PBS and at least 500 cells were counted for each sample in triplicates. Positive cells (blue cells) were expressed as a percentage of total cells.

[6] = test system: human cardiac fibroblasts; assay: Mitochondrial membrane potential, mass, superoxide and total ROS by flow cytometry; format: cell-based; settings: control cultures (no rapamycin) treated with scavenger during NRTI exposure
Procedure: as §1, §2
Mitochondrial membrane potential was detected by incubating cells with 25 nM TMRE (Molecular Probes). Mitochondrial mass was evaluated by incubating the cells with 100 nM Mitotracker Green FM (Molecular Probes). Mitochondrial superoxide anion levels were detected by incubating the cells with 5 μM MitoSox Red (Molecular Probes). Total cellular levels of ROS were detected by incubating the cells with 10 μM 2′,7′-dichlorofluoroscein diacetate (DCF-DA; Sigma-Aldrich) in 1% fetal bovine serumsupplemented MEM and washing twice with Krebs Ringer phosphate glucose buffer (145 mM NaCl, 5.7 mM NaH2PO4, 4.86 mM KCL, 0.54 mM CaCl2), 1.22 mM MgSO4, and 5.5 mM glucose) following the incubation period. For the aforementioned assessments, incubation was performed at 37° C. in 5% CO2 for 30 minutes and cells were harvested in 2.5% trypsin-EDTA with serum-containing medium. Cells were immediately analyzed with a Guava EasyCyte Mini employing the Guava Express Plus program (Guava Technologies).

human fibroblasts = assay: Ethidium bromide mitochondrial stress in human fibroblasts; settings: exposure to ethidium bromide
Text: Human fibroblasts were exposed to ethidium bromide for 7 days and cell viability measured at that time.

[7] = replicative senescent cardiac fibroblasts
[8] = agent added to NRTI-exposed cardiac fibroblasts
[9] = serum-free 48 hours, exposure 2 hours, 1 to 400 μM

In the case of `CC(C)CCN1c2nc(Nc3cc(F)c(O)c(F)c3)ncc2N(C)C(=O)C1C` (stereo not drawn) [BI-D1870], the “phosphorylated MDM2 in senescent fibroblasts” value [1, 7] is reported as “reduced”, the “ribosomal S6 phosphorylation in senescent fibroblasts” value [1, 7] is reported as “reduced” and the “ribosomal S6 phosphorylation in cells exposed to NRTIs” value [2, 8] is reported as “greatest impact”.
`O=C1Nc2ccc(I)cc2/C1=C/c1cc(Br)c(O)c(Br)c1` [GW5047] was tested, and the “ribosomal S6 phosphorylation in cells exposed to NRTIs” value [2, 8] was “some decrease”.
`COC1=C(OC)C(=O)C(CCCCCCCCCC[P+](c2ccccc2)(c2ccccc2)c2ccccc2)=C(C)C1=O` [Mito-Q] was tested, and the “NRTI-induced increase in basal respiration, ATP-linked respiration and proton leak” value [3] was “partially alleviated”, the maximal respiration [3] was “less affected” and the “increase in senescence-associated proteins (p53, p21, p16) following NRTI exposure” value [4] was “ameliorated”. For the same compound, the “percentage of cells positive for SA-β-gal staining” value [5] was “reduced”, the “MDM2 phosphorylation in cells exposed to NRTIs” value (“MDM2 phosphorylation … to NRTIs” below) [2, 8] was “reduced” and the “ribosomal S6 phosphorylation in cells exposed to NRTIs” value [2, 8] was “reduced”. For the same compound, the “mitochondrial ROS following exposure to NRTIs” value [6] was “ameliorated” and the “mitochondrial ROS following exposure to NRTIs” value ([6]; listed as mito-Q) was “lower level”.
For `CCc1cncnc1N1CCN(Cc2nc3ccc(C(F)(F)F)cc3[nH]2)CC1` [PF-4708671], the “MDM2 phosphorylation … to NRTIs” value [2, 8] was “inhibited” and the “ribosomal S6 phosphorylation in cells exposed to NRTIs” value [2, 8] was “inhibited”.
For `C[S+]([O-])c1ccc(-c2nc(-c3ccncc3)c(-c3ccc(F)cc3)[nH]2)cc1` (stereo not drawn) [SB-203580], the “MDM2 phosphorylation … to NRTIs” value [2] was “no effect” and the “ribosomal S6 phosphorylation in cells exposed to NRTIs” value [2] was “no effect”.
In the case of `N#CC(=C(/N)Sc1ccccc1N)/C(C#N)=C(\N)Sc1ccccc1N` [U0126], the “ribosomal S6 phosphorylation in cells exposed to NRTIs” value [1] is reported as “some decrease”.
`COc1cc(C(C)=O)ccc1O` [apocyanin] was tested, and the “ribosomal S6 phosphorylation in cells exposed to NRTIs” value [2, 8] was “did not prevent the increase”.
For `CC[n+]1c(-c2ccccc2)c2cc(N)ccc2c2ccc(N)cc21` [ethidium bromide], the mitochondrial network (human fibroblasts) was “destroyed”.
`OO` [hydrogen peroxide] was tested, and the “ribosomal S6 and MDM2 phosphorylation at the lower concentrations” value ([1]; serum-free 48 hours, exposure 2 hours) was “increased”, the “concentration of maximal activation of ribosomal S6 and MDM2 phosphorylation” value [1, 9] was 50 µM and the “concentrations at which ribosomal S6 and MDM2 phosphorylation are inhibited” value [1, 9] was “above 100 μM”.
With `C=C(C)[C@H]1Cc2c(ccc3c2O[C@@H]2COc4cc(OC)c(OC)cc4[C@@H]2C3=O)O1` [rotenone] the “concentration of sharp inhibition of S6 phosphorylation” value ([1]; serum deprived cardiac fibroblasts, 16 hours) was 50 nM and the “S6 phosphorylation at nanomolar concentrations” value ([1]; serum deprived cardiac fibroblasts, 16 hours, 1 to 50 nM) was “increased”.
